Source: US11976070B1, “Substituted pyrimido[6’, 1’:2,3]imidazo[4,5-c][1,6]naphthyridines as CK2 inhibitors” (KING FAISAL UNIVERSITY, priority 2023, dated 2024)
Like-named read-outs stand apart in the source and are kept apart here.

What was measured:
H1299 (lung) = test: In vitro cytotoxic activity (MTT) assay, H1299; assay type: cell-based; conditions: Homo sapiens, NCI-H1299; H1299 (lung) cells, exposed for 96 hours; read-out: IC50, 50% inhibition of cell proliferation
Experimental: (§1) Compounds 1-12 were screened for their in vitro cytotoxic activity utilizing a 3-(4,5-dimethyl-thiazol-2-yl)-2,5-diphenyltetrazolium bromide (MTT) assay against selected cancer human cell lines consisting of PC3 (prostate), HCT116 (colon). A375 (melanoma), H1299 (lung), MIAPaCa-2 (pancreas), HL60 (leukemia), MCF7 (breast), MDA-MB-231 (breast) (T. Mosmann, J. Immunol. Meth., 1983, 65, 55-63). The cells were cultured at 37° C. in RMPI1640 medium supplemented with 10% fetal bovine serum, 50 IU/mL penicillin, and 50 μg/mL streptomycin in a 5% CO2 incubator. All cells were sub-cultured 3 times/week by trypsinisation. Viable cells were seeded and allowed to adhere for 12 h before a test drug was added in 96-well plates at an initial density of 1.0×10^5 cells/mL. Tumour cell lines were separately exposed to various concentrations of the tested compounds followed by incubation at a temperature of 37° C. during 96 h inside a medium of fresh RMPI 1640. Cells were subsequently incubated at 37° C. using MTT at 0.5 mg/mL during 4 h. After removal of supernatant, formazan crystals were dissolved in isopropanol and the optical density was measured at 570 nm. CX-4945 was used as a positive control.

HCT116 (colon) = test: In vitro cytotoxic activity (MTT) assay, HCT116; assay type: cell-based; conditions: Homo sapiens, HCT-116; HCT116 (colon) cells, exposed for 96 hours; read-out: IC50, 50% inhibition of cell proliferation
Experimental: as §1

[1] = tested on: various human cancer cell lines; test: In vitro cytotoxic activity assay, panel statement; assay type: cell-based
Experimental: as §1

MIAPaCa-2 (pancreas) = test: In vitro cytotoxic activity (MTT) assay, MIAPaCa-2; assay type: cell-based; conditions: Homo sapiens, MIA PaCa-2; MIAPaCa-2 (pancreas) cells, exposed for 96 hours; read-out: IC50, 50% inhibition of cell proliferation
Experimental: as §1

A375 (melanoma) = test: In vitro cytotoxic activity (MTT) assay, A375; assay type: cell-based; conditions: Homo sapiens, A-375; A375 (melanoma) cells, exposed for 96 hours; read-out: IC50, 50% inhibition of cell proliferation
Experimental: as §1

MCF7 (breast) = test: In vitro cytotoxic activity (MTT) assay, MCF7; assay type: cell-based; conditions: Homo sapiens; MCF7 (breast) cells, exposed for 96 hours; read-out: IC50, 50% inhibition of cell proliferation
Experimental: as §1

PC3 (prostate) = test: In vitro cytotoxic activity (MTT) assay, PC3; assay type: cell-based; conditions: Homo sapiens, Prostate cell; PC3 (prostate) cells, exposed for 96 hours; read-out: IC50, 50% inhibition of cell proliferation
Experimental: as §1

[2] = target: T1, recombinant human CK2 (RRββ-holoenzyme) (Homo sapiens, UniProt P68400); test: CK2 Kinase Assay (radiometric, [γ-33P]ATP); assay type: biochemical; conditions: final ATP 15 μM, 10 min at 30° C.; read-out: protein kinase CK2 inhibition IC50
T1 construct: purchased Millipore
Experimental: CK2 Kinase Assay was conducted using the protocol as described in Pierre F. et al; J. Med. Chem. 2011, 54, 635-654. The tested compounds in aqueous solution were added at a volume of 10 μL to a reaction mixture comprising 10 μL of assay dilution buffer (ADB; 20 mM MOPS, pH 7.2, 25 mM β-glycerol phosphate, 5 mM EGTA, 1 mM sodium orthovanadate, and 1 mM dithiothreitol), 10 μL of substrate peptide (RRRDDDSDDD, dissolved in ADB at a concentration of 1 mM), 10 μL of recombinant human CK2 (RRββ-holoenzyme, 25 ng dissolved in ADB; Millipore). Reactions were initiated by the addition of 10 μL of ATP solution (90% 75 mMMgCl2, 75 μM ATP (final ATP concentration:15 μM) dissolved in ADB; 10% [γ-33P] ATP (stock 1 mCi/100 μL: 3000 Ci/mmol (Perkin-Elmer) and maintained for 10 min at 30° C. The reactions were quenched with 100 μL of 0.75% phosphoric acid and then transferred to and filtered through a phosphor cellulose filter plate (Millipore). After washing each well five times with 0.75% phosphoric acid, the plate was dried under vacuum for 5 min and, following the addition of 15 μL of scintillation fluid to each well, the residual radioactivity was measured using a Wallac […]. The IC50 values were derived from eight concentrations of test inhibitors.

MDA-MB-231 (breast) = test: In vitro cytotoxic activity (MTT) assay, MDA-MB-231; assay type: cell-based; conditions: Homo sapiens; MDA-MB-231 (breast) cells, exposed for 96 hours; read-out: IC50, 50% inhibition of cell proliferation
Experimental: as §1

HL60 (leukemia) = test: In vitro cytotoxic activity (MTT) assay, HL60; assay type: cell-based; conditions: Homo sapiens, HL-60; HL60 (leukemia) cells, exposed for 96 hours; read-out: IC50, 50% inhibition of cell proliferation
Experimental: as §1

T1 sequence (P68400 whole entry): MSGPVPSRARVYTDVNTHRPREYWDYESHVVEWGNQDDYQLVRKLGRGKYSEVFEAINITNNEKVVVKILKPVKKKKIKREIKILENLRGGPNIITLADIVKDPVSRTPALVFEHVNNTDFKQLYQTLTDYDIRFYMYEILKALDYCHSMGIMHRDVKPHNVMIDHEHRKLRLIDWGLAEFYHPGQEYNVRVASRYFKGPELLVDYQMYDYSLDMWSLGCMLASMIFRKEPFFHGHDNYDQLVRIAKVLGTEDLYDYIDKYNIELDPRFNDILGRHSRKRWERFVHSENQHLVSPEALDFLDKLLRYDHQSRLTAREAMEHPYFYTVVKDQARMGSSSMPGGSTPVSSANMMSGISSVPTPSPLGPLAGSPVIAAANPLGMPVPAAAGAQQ
T1 sequence (P67870 whole entry partner): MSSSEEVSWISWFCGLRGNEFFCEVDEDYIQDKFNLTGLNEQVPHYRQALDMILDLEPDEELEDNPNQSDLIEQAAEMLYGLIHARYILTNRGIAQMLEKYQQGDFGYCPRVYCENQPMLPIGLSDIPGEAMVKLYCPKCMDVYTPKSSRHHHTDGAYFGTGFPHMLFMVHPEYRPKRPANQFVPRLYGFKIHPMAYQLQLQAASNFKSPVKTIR

- IC50 [2]: 0.022 µM
SMILES: Clc1cccc(Nc2nc3ccncc3c3nc4ccncn4c23)c1 [Compound 1, N-(3-chlorophenyl)pyrimido[6′,1′:2,3]imidazo[4,5-c][1,6]naphthyridin-6-amine]
- IC50 (H1299 (lung)): 2.5 µM
- IC50 (HCT116 (colon)): 1.1 µM
- in vitro anti-proliferative activity, in words [1]: promising anti-proliferative activity
- in vitro anti-proliferative activity, in words ([1]; listed as 13): promising in vitro anti-proliferative activity
- IC50 (MIAPaCa-2 (pancreas)): 0.9 µM
- IC50 (A375 (melanoma)): 2.9 µM
- IC50 (MCF7 (breast)): 5.1 µM
- IC50 (PC3 (prostate)): 1.4 µM
- IC50 (MDA-MB-231 (breast)): 4.5 µM
- IC50 (HL60 (leukemia)): 3.2 µM
